Measured values as given in patent publication US8507464B2, “Phosphoramidate alkylator prodrugs” (Threshold Pharmaceuticals, Inc., priority 2005, dated 2013).
pIC50: −log10 of the molar value. Like-named read-outs stand apart in the source and are kept apart here.

What was measured:
NCI-H460 cells [1] = test: Antiproliferation assay - oxygen dependence; format: cell-based, human; conditions: Homo sapiens
Text: . […] The calculated IC50 values (μM) are tabulated in Table Y1 (H460 cells) or Table Y2 (HT29 cells) below.

[2] = format: physicochemical; conditions: glassy carbon, Ag/AgCl reference; for Reduction Potentials, 100 mV/sec: scan rate 100 mV/sec; for Reduction Potentials, 10,000 mV/sec: scan rate 10,000 mV/sec
[3] = Preliminary toxicity in mice (Example 56); format: in vivo
Text: It is recognized that efficacious molecules for treatment of human diseases including cancer may be toxic at doses near or sometime much greater than doses necessary to achieve beneficial effects. To determine appropriate dose and route of administering such a compound, it is necessary to understand its toxicity. Routinely, initial approaches to determining the toxic dose involve the use of rodents such as mice to provide preliminary data that might support the design of similar studies in larger animals and humans. Test compounds (Compounds 24, 25 and 36) were tested in mice as preliminary experiments for determining doses to be used in larger animals. […] These doses selected represent an approximation of doses that might be used in larger animals such as rats and dogs for the purpose of confirming that such toxicities exist and for predicting if renal function should be measured in humans.

in vivo [4] = conditions: for half-life: t ½, mice
[5] = Plasma stability (Table 2B)
[6] = system: H460 lung carcinoma spheroids; test: Spheroid model, clonogenic survival; conditions: Homo sapiens, NCI-H460, 2 h, read-out: IC90 H460 Spheroid 10% O2
Irs1SF = test: Clonogenic survival - DNA mutant repair cells; conditions: Cricetulus griseus
AA8 cells (wild type) = test: Antiproliferation assay - DNA mutant repair cells; conditions: Cricetulus griseus, CHO-AA8, 2 h
EM9 cells (XRCC1) = test: Antiproliferation assay - DNA mutant repair cells; conditions: Cricetulus griseus, 2 h
UV41 cells (XPF) = test: Antiproliferation assay - DNA mutant repair cells; conditions: Cricetulus griseus, 2 h
UV135 cells (XPG) = test: Antiproliferation assay - DNA mutant repair cells; conditions: Cricetulus griseus, 2 h
IRS1SF cells (XRCC3) = test: Antiproliferation assay - DNA mutant repair cells; conditions: Cricetulus griseus, 2 h
[7] = system: H460 cells exposed as monolayers; test: Clonogenic survival of monolayer cells (Example 35); conditions: Homo sapiens, NCI-H460, 2 h
NCI-H460 cells [8] = test: Antiproliferation assay (Alamar Blue), anoxia vs air; conditions: Homo sapiens, NCI-H460, 2 h
HT29 cells = test: as above; conditions: Homo sapiens, HT-29, 2 h
MES-SA cells = test: as above; conditions: Homo sapiens, 2 h
MES-SA/Dx5 cells = test: as above; conditions: Homo sapiens, MES-SA/Dx5, 2 h
H460 cell line = test: Anti-proliferation assay, hypoxia vs normoxia (Table 1A); conditions: for pIC50: Homo sapiens; for HCR P: ratio of IC50 in normoxia and hypoxia
HT29 = test: Anti-proliferation assay, hypoxia vs normoxia (Table 1B); conditions: for pIC50: Homo sapiens
DX-5 = test: as above
HCT116 = test: as above; conditions: for pIC50: Homo sapiens
in vivo [9] = test: in vivo
[10] = NCI-H460, read-out: IC50 in H460 cells, 0.1% O2
[11] = NCI-H460, read-out: IC50 in H460 cells, 0.6% O2
[12] = NCI-H460, read-out: IC50 in H460 cells, 1% O2
[13] = NCI-H460, read-out: IC50 in H460 cells, 10% O2
[14] = NCI-H460, read-out: IC50 in H460 cells, Air
[15] = NCI-H460, read-out: IC50 in H460 cells, N2
[16] = CD-1, Balb/c for Compound 1, mouse, ip
[17] = CD-1, Balb/c for Compound 1, mouse, iv
[18] = CD-1, Balb/c for Compound 1, mouse, iv, intravenous administration in mice
[19] = mouse, ip, intraperitoneal administration in mice
[20] = read-out: IC90 H460 Monolayer Air
[21] = read-out: IC90 H460 Monolayer N2
[22] = read-out: IC50 H460 Air, air, 2 h exposure
[23] = read-out: IC50 H460 Anoxia, anoxia, 2 h exposure
[24] = read-out: IC50 MES-SA/Dx5 Anoxia
[25] = NCI-H460, read-out: Hypoxia P (proliferation IC50)
[26] = NCI-H460, read-out: Normoxia P (proliferation IC50)
[27] = HT-29, read-out: HT29 P H (proliferation IC50, hypoxia)
[28] = HT-29, read-out: HT29 P N (proliferation IC50, normoxic)
[29] = read-out: DX-5 P H (proliferation IC50, hypoxia)
[30] = read-out: DX-5 P N (proliferation IC50, normoxic)
[31] = HCT-116, read-out: HCT116 P H (proliferation IC50, hypoxia)
[32] = HCT-116, read-out: HCT116 P N (proliferation IC50, normoxic)

Compound: Cn1c(COP(=O)(NCCBr)NCCBr)cnc1[N+](=O)[O-] [Compound 25]
- pIC50 (NCI-H460 cells [1]; [10]): 6.00
- pIC50 (NCI-H460 cells [1]; NCI-H460, read-out: IC50 in H460 cells, 0.3% O2): 5.52
- pIC50 (NCI-H460 cells [1]; [11]): 5.30
- pIC50 (NCI-H460 cells [1]; [12]): 5.00
- pIC50 (NCI-H460 cells [1]; [13]): 4.60
- pIC50 (NCI-H460 cells [1]; [14]): 4.26
- pIC50 (NCI-H460 cells [1]; [15]): 7.00
- Reduction Potentials, 100 mV/sec [2]: −594 mV
- Reduction Potentials, 10,000 mV/sec [2]: −626 mV
- white blood cells [3]: Transient reductions in white blood cells
- toxicity at 300 mg/kg single dose ([3]; 300 mg/kg single dose): renal toxicities such as tubular necrosis and protein spillage into the urine
- toxicity at lower doses (100 and 200 mg/kg) ([3]; 100 and 200 mg/kg): little toxicity
- Cmax (in vivo [4]; [16]): 22900 ng/mL
- Cmax (in vivo [4]; [17]): 27500 ng/mL
- half-life (in vivo [4]; [18]): 6.6 min
- half-life (in vivo [4]; mouse, ip, intraperitoneal administration in mice (min)): 11 min
- half-life (in vivo [4]; [19]): 10.8 min
- half-life (in vivo [4]; mouse, iv, intravenous administration in mice (min)): 6.7 min
- Plasma stability (at 20 min) ([5]; at 20 min): 102%
- IC90 [6]: 15 µM
- IC90 (Irs1SF; read-out: IC90 Irs1SF Air): 20 µM
- IC90 (Irs1SF; read-out: IC90 Irs1SF N2): 0.02 µM
- pIC50 (AA8 cells (wild type); read-out: IC50 AA8 Air): < 4.00
- pIC50 (AA8 cells (wild type); read-out: IC50 AA8 Anoxia): 5.10
- pIC50 (EM9 cells (XRCC1); read-out: IC50 EM9 Air): < 4.00
- pIC50 (EM9 cells (XRCC1); read-out: IC50 EM9 Anoxia): 5.15
- pIC50 (UV41 cells (XPF); read-out: IC50 UV41 Air): 4.02
- pIC50 (UV41 cells (XPF); read-out: IC50 UV41 Anoxia): 6.70
- pIC50 (UV135 cells (XPG); read-out: IC50 UV135 Air): < 4.00
- pIC50 (UV135 cells (XPG); read-out: IC50 UV135 Anoxia): 5.22
- pIC50 (IRS1SF cells (XRCC3); read-out: IC50 IRS1SF Air): < 4.00
- pIC50 (IRS1SF cells (XRCC3); read-out: IC50 IRS1SF Anoxia): 5.70
- IC90 ([7]; read-out: IC90 H460 Monolayer 0.6% O2): 0.6 µM
- IC90 [7, 20]: 20 µM
- IC90 [7, 21]: 0.1 µM
- pIC50 (NCI-H460 cells [8]; [22]): 4.07
- pIC50 (NCI-H460 cells [8]; [23]): 6.82
- pIC50 (HT29 cells; read-out: IC50 HT29 Air): < 4.00
- pIC50 (HT29 cells; read-out: IC50 HT29 Anoxia): 4.80
- pIC50 (MES-SA cells; read-out: IC50 MES-SA Air): < 4.00
- pIC50 (MES-SA cells; read-out: IC50 MES-SA Anoxia): 6.05
- pIC50 (MES-SA/Dx5 cells; read-out: IC50 MES-SA/Dx5 Air): < 4.00
- pIC50 (MES-SA/Dx5 cells; [24]): 6.52
- pIC50 (H460 cell line; [25]): 7.30
- pIC50 (H460 cell line; NCI-H460, read-out: IC50 in cells under hypoxia): 7.30
- pIC50 (H460 cell line; [26]): 4.30
- fold more toxic in hypoxic cells than in normoxic cells (H460 cell line; anti-proliferation cytotoxicity assay): 1000 fold
- HCR P (H460 cell line): 1000
- HT29 HCR P (HT29): >6
- pIC50 (HT29; [27]): 4.80
- pIC50 (HT29; [28]): < 4.00
- DX-5 HCR (DX-5): >100
- pIC50 (DX-5; [29]): 6.00
- pIC50 (DX-5; [30]): < 4.00
- HCT116 HCR (HCT116): >100
- pIC50 (HCT116; [31]): 6.05
- pIC50 (HCT116; [32]): < 4.00

Compound: Cn1c(COP(=O)(NCCCl)NCCCl)cnc1[N+](=O)[O-] [Compound 36]
- pIC50 (NCI-H460 cells [1]; [10]): 4.52
- pIC50 (NCI-H460 cells [1]; [11]): 4.22
- pIC50 (NCI-H460 cells [1]; [12]): 4.22
- pIC50 (NCI-H460 cells [1]; [13]): < 4.00
- pIC50 (NCI-H460 cells [1]; [14]): < 4.00
- pIC50 (NCI-H460 cells [1]; [15]): 6.00
- Reduction Potentials, 100 mV/sec [2]: −609 mV
- Reduction Potentials, 10,000 mV/sec [2]: −634 mV
- MTD (in vivo [9]): 400 mg/kg
- clearance (in vivo [4]; CD-1 (Compounds 5, 23, 36), Balb/c (Compound 1), mouse, iv): 77.4 mL/min/kg
- Cmax (in vivo [4]; [16]): 44000 ng/mL
- AUC (in vivo [4]; [17]): 10800 ng·h/mL
- Cmax (in vivo [4]; [17]): 27700 ng/mL
- Vd (in vivo [4]; [17]): 1.27 L/kg
- half-life (in vivo [4]; [18]): 14.4 min
- AUC (in vivo [4]; CD-1, mouse, ip): 26100 ng·h/mL
- half-life (in vivo [4]; [19]): 10.8 min
- Plasma stability (% at 30 min) ([5]; 30 min): 60%
- IC90 [6]: > 100 µM
- pIC50 (AA8 cells (wild type); read-out: IC50 AA8 Air): < 4.00
- pIC50 (AA8 cells (wild type); read-out: IC50 AA8 Anoxia): 5.70
- pIC50 (EM9 cells (XRCC1); read-out: IC50 EM9 Air): < 4.00
- pIC50 (EM9 cells (XRCC1); read-out: IC50 EM9 Anoxia): 5.40
- pIC50 (UV41 cells (XPF); read-out: IC50 UV41 Air): 4.70
- pIC50 (UV41 cells (XPF); read-out: IC50 UV41 Anoxia): 7.52
- pIC50 (UV135 cells (XPG); read-out: IC50 UV135 Air): < 4.00
- pIC50 (UV135 cells (XPG); read-out: IC50 UV135 Anoxia): 5.70
- pIC50 (IRS1SF cells (XRCC3); read-out: IC50 IRS1SF Air): 4.23
- pIC50 (IRS1SF cells (XRCC3); read-out: IC50 IRS1SF Anoxia): 6.52
- IC90 [7, 20]: 100 µM
- IC90 [7, 21]: 1 µM
- pIC50 (NCI-H460 cells [8]; [22]): < 4.00
- pIC50 (NCI-H460 cells [8]; [23]): 6.06
- pIC50 (HT29 cells; read-out: IC50 HT29 Air): < 4.00
- pIC50 (HT29 cells; read-out: IC50 HT29 Anoxia): 4.26
- pIC50 (MES-SA cells; read-out: IC50 MES-SA Air): < 4.00
- pIC50 (MES-SA cells; read-out: IC50 MES-SA Anoxia): 5.30
- pIC50 (MES-SA/Dx5 cells; read-out: IC50 MES-SA/Dx5 Air): < 4.00
- pIC50 (MES-SA/Dx5 cells; [24]): 5.12
- pIC50 (H460 cell line; [25]): 6.06
- pIC50 (H460 cell line; [26]): < 4.00
- HCR P (H460 cell line): >110
- HT29 HCR P (HT29): >2
- pIC50 (HT29; [27]): 4.26
- pIC50 (HT29; HT-29, read-out: HT29 P H, value in parentheses): 4.46
- pIC50 (HT29; [28]): < 4.00
- DX-5 HCR (DX-5): >13
- pIC50 (DX-5; [29]): 5.12
- pIC50 (DX-5; [30]): < 4.00
- HCT116 HCR (HCT116): >20
- pIC50 (HCT116; [31]): 5.30
- pIC50 (HCT116; [32]): < 4.00
